`Nc1ncnc2c1c(-c1ccc(Oc3ccccc3)cc1)nn2C1CCOCC1` registered a melting point of 187 to 187.5 °C. Under `Nc1ncnc2c1c(-c1ccc(Oc3ccccc3)cc1)nn2C1CCC2(CC1)OCCO2` stands 200 to 202.5 °C; under `Nc1ncnc2c1c(-c1ccc(Oc3ccccc3)cc1)nn2[C@H]1CC[C@@H](N2CCNCC2)CC1.O=C(O)/C=C\C(=O)O.O=C(O)/C=C\C(=O)O.O=C(O)/C=C\C(=O)O`, 173 to 175 °C; under `Nc1ncnc2c1c(-c1ccc(Oc3ccccc3)cc1)nn2[C@H]1CC[C@H](N2CCNCC2)CC1.O=C(O)/C=C\C(=O)O.O=C(O)/C=C\C(=O)O.O=C(O)/C=C\C(=O)O`, 153 to 155 °C.

The values are drawn from patent US6921763B2, “Pyrazolopyrimidines as therapeutic agents” (Abbott Laboratories, priority 1999, dated 2005).
